From ChEMBL document CHEMBL1201862, “PubChem BioAssay data set” (2004)
Calls of active or inactive are those of the source.

How the values were obtained:
[1] = viability of PTEN-deleted HCT116 cells – cell-based, HCT116 PTEN knockout, dose response (AID 1047); assay type: functional;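 also: HCT116 colon tumor cells with PTEN knocked out; cells exposed to compound for 60 hours before readout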
[2] = tested on: CHO; assay: CHO cell viability loss, potency – luminescence, cytotoxicity control for TLR9-MyD88 binding inhibitor project, dose response (AID 588339); assay type: functional, cell-based, hamster; settings: Cricetulus griseus;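 also: CHO cells stably coexpressing TLR9 and MyD88 fusions from primary screen; compound exposure lasted 48 hours before viability readout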
[3] = viability of HCT116 lacking mutant beta-catenin – cell-based, human colon tumor, dose response (AID 1045); assay type: functional;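 also: HCT116 colon tumor cells with beta catenin knocked out; cells exposed to compound for 60 hours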
[4] = viability of uninfected HEp-2 cells – cell-based, HTS, cytotoxicity control for RSV inhibitor project, dose response (AID 2410); assay type: functional; settings: human respiratory syncytial virus
[5] = target: Beta Lactamase (Pseudomonas aeruginosa, UniProt Q932Y6); assay: BLA reporter interference, concentration series – BLA reporter cells, FRET fluorescence, artefact control for TLR9-MyD88 binding inhibitor project, dose response (AID 588341); assay type: cell-based;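 also: cell based assay in CHO-K1 cells stably expressing beta-lactamase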
Sequence of Beta Lactamase (Q932Y6 whole entry): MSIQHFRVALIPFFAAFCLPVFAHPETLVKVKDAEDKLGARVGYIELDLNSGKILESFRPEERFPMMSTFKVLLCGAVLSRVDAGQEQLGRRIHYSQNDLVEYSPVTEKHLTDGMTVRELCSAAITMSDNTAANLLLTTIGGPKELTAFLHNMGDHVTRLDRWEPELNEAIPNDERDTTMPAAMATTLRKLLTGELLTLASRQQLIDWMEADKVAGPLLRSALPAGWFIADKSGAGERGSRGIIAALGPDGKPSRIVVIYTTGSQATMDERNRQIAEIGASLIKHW

[6] = target: Genome polyprotein (dengue virus type 2, UniProt P29990); assay: flavivirus cap methylation enzyme inhibition – biochemical, confirmation dose response, primary screen (AID 588689); assay type: functional
Sequence of Genome polyprotein (P29990 2492-3391 limits assumed): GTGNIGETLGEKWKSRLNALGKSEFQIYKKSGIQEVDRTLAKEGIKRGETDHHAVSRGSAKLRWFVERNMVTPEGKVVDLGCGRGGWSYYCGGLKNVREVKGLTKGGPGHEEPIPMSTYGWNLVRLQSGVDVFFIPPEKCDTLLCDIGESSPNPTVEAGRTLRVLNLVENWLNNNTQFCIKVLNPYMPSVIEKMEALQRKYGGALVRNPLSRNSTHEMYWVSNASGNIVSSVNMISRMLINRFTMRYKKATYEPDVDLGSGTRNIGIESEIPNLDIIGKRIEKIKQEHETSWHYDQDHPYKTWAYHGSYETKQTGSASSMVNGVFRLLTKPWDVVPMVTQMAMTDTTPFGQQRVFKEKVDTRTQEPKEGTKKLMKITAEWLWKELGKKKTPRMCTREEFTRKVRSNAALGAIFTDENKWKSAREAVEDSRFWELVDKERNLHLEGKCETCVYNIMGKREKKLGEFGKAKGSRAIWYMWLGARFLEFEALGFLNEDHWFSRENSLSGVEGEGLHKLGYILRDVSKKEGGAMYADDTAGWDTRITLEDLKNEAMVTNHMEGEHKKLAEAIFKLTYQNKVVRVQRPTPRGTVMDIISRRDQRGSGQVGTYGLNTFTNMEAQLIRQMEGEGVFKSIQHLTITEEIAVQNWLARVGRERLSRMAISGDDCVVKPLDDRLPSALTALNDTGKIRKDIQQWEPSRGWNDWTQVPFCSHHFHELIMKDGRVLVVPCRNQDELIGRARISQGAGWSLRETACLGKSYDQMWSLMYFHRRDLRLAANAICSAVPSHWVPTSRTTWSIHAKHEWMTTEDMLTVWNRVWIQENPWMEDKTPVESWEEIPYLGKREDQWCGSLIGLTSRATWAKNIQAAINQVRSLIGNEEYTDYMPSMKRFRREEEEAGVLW

[7] = tested on: Vero; assay: viability of Vero cells under compound – cytotoxicity control for flavivirus capping enzyme inhibitors (AID 588742); assay type: functional; settings: Chlorocebus sabaeus
[8] = target: Induced myeloid leukemia cell differentiation protein Mcl-1 (Homo sapiens, UniProt Q07820); assay type: functional
Sequence of Induced myeloid leukemia cell differentiation protein Mcl-1 (Q07820 whole entry): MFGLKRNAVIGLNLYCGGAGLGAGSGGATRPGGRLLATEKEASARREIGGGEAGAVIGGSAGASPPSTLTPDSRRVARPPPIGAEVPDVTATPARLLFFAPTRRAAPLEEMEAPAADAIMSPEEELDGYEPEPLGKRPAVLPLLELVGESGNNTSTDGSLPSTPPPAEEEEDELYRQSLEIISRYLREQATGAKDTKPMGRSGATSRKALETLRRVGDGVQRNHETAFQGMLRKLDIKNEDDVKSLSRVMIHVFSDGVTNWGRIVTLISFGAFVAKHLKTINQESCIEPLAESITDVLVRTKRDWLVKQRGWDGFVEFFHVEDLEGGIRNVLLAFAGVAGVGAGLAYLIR

[9] = target: T1, Sentrin-specific protease 7 (Homo sapiens, UniProt Q9BQF6); assay: inhibition of human SENP7 cleavage activity – biochemical, luminescence, SAR follow-up (AID 504497); assay type: functional
T1 sequence (Q9BQF6 whole entry): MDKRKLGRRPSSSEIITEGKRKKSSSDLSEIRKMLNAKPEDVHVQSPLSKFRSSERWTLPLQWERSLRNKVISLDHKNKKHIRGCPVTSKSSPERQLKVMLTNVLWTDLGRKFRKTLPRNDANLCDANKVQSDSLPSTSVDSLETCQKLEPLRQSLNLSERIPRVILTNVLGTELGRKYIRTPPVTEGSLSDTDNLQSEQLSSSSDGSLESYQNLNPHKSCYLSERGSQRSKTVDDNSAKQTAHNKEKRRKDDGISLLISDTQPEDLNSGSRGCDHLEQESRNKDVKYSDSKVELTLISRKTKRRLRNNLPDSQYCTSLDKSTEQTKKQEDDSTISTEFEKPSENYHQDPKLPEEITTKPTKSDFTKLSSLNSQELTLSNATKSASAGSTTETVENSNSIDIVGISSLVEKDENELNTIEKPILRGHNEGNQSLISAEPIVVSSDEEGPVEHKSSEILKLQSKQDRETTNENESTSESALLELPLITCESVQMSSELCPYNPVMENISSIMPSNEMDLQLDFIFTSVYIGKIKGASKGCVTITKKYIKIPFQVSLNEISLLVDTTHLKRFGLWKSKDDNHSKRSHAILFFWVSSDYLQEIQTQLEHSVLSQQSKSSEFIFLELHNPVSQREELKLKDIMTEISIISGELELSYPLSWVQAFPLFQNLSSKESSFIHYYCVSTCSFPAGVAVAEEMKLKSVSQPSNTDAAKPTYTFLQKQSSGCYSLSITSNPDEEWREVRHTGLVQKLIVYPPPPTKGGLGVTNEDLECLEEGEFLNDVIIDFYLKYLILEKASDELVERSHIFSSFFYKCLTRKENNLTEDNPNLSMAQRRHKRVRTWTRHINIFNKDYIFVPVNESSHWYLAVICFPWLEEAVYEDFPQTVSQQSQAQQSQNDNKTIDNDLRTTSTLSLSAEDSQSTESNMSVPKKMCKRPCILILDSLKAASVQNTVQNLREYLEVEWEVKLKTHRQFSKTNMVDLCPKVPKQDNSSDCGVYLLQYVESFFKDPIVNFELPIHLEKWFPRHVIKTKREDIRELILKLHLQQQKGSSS

[10] = target: T2, Sentrin-specific protease 8 (Homo sapiens, UniProt Q96LD8); assay: inhibition of human SENP8 cleavage activity – biochemical, luminescence, SAR follow-up (AID 504501); assay type: functional
T2 sequence (Q96LD8 whole entry): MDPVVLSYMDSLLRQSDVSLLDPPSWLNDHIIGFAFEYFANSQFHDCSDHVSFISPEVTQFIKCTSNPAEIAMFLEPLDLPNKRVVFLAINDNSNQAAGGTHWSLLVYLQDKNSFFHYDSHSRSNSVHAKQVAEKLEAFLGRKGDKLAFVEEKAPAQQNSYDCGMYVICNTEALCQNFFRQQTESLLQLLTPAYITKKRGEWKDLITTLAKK

[11] = target: T3, Sentrin-specific protease 6 (Homo sapiens, UniProt Q9GZR1); assay: SAR Analysis of small molecule inhibitors of Sentrin-specific protease 6 (SENP6) using a Luminescent assay. [Related pubchem assays (depositor defined):AID2582, AID2599]; assay type: functional
T3 sequence (Q9GZR1 whole entry): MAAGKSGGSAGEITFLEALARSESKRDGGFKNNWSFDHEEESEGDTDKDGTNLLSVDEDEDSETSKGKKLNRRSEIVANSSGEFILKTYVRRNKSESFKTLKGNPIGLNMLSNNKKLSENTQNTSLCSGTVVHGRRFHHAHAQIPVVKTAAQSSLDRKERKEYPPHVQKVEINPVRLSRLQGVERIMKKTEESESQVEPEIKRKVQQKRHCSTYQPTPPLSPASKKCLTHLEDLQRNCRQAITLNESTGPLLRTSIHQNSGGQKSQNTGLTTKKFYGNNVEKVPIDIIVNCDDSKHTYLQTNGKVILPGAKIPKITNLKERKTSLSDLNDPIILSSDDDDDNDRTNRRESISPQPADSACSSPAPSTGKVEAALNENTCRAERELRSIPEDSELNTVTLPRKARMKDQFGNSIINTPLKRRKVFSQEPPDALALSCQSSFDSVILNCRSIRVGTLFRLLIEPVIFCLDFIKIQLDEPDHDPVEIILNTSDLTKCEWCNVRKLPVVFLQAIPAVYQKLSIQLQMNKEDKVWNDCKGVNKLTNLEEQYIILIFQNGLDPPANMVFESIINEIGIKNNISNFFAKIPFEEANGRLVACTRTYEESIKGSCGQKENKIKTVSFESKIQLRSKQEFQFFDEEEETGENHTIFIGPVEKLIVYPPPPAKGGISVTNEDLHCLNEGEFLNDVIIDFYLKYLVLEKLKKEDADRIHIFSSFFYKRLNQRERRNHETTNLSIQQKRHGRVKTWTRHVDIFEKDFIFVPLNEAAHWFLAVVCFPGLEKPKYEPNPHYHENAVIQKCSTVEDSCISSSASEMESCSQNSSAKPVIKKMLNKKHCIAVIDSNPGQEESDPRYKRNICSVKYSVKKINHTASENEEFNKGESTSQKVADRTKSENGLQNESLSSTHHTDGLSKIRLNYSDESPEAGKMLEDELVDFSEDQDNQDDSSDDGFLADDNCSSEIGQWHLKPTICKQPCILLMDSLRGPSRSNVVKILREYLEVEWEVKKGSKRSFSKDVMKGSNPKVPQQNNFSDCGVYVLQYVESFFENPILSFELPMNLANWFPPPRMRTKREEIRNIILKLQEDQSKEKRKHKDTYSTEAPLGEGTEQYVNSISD

[12] = target: T4, Caspase-3 (Homo sapiens, UniProt P42574); assay: SAR Analysis of small molecule inhibitors of Sentrin-specific proteases (SENPs) using a Caspase-3 Selectivity assay. [Related pubchem assays (depositor defined):AID2540, AID2599, AID434973, AID489001]; assay type: functional
T4 sequence (P42574 whole entry): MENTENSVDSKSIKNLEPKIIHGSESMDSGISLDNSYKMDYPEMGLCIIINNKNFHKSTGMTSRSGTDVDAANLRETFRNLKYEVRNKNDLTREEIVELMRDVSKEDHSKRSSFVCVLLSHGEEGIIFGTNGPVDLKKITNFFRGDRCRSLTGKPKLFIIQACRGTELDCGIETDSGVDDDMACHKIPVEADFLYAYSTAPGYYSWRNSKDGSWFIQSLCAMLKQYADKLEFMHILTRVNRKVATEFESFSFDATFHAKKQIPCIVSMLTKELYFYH

[13] = target: Dual specificity protein kinase CLK4 (Homo sapiens, UniProt Q9HAZ1); assay type: functional
[14] = target: Dual specificity tyrosine-phosphorylation-regulated kinase 1A (Homo sapiens, UniProt Q13627); assay type: functional;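 also: measured against DYRK1A as one member of a broad kinome profiling panel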
[15] = target: Hepatocyte growth factor receptor (Homo sapiens, UniProt P08581); assay type: functional;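 also: kinase panel profiling across the kinome, with MET as the panel member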
Sequence of Hepatocyte growth factor receptor (P08581 whole entry, the tested form may be a part): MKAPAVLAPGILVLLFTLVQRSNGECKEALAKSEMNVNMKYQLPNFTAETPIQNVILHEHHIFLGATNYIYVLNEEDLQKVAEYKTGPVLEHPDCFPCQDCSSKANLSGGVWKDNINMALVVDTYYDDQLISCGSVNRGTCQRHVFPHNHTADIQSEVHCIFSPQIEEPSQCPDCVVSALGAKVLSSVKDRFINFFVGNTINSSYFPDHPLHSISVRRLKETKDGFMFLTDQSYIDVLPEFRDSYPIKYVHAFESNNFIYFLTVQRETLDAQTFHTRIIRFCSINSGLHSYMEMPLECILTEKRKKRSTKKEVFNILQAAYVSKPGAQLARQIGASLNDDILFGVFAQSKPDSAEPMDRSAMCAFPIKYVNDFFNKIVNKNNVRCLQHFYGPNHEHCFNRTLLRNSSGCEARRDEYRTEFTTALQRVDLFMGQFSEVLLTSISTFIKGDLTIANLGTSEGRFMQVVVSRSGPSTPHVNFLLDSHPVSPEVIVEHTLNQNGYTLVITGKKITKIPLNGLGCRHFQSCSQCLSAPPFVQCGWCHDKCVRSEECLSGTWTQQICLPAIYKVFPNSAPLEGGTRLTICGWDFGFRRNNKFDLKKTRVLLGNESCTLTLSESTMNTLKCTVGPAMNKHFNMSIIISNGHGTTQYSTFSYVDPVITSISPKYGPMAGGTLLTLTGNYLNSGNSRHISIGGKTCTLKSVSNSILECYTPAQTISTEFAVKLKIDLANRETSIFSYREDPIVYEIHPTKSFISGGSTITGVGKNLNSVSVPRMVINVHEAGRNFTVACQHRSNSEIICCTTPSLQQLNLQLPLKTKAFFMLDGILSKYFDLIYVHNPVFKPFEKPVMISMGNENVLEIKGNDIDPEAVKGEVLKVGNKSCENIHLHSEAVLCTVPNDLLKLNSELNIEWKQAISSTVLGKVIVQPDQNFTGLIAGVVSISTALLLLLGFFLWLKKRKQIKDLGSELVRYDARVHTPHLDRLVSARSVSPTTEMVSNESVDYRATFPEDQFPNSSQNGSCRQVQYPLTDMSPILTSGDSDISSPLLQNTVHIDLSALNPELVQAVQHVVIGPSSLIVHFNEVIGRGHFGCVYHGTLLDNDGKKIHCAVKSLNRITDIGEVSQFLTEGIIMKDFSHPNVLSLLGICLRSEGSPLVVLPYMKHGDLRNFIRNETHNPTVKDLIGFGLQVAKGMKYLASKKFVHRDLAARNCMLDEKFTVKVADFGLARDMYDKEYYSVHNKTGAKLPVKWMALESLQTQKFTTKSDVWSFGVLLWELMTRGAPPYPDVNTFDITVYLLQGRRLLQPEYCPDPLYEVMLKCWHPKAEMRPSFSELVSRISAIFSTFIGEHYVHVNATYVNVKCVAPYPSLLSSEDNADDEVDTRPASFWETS

[16] = target: LIM domain kinase 1 (Homo sapiens, UniProt P53667); assay: Navigating the Kinome. Panel member name: LIMK1; assay type: functional
Sequence of LIM domain kinase 1 (P53667 whole entry, the tested form may be a part): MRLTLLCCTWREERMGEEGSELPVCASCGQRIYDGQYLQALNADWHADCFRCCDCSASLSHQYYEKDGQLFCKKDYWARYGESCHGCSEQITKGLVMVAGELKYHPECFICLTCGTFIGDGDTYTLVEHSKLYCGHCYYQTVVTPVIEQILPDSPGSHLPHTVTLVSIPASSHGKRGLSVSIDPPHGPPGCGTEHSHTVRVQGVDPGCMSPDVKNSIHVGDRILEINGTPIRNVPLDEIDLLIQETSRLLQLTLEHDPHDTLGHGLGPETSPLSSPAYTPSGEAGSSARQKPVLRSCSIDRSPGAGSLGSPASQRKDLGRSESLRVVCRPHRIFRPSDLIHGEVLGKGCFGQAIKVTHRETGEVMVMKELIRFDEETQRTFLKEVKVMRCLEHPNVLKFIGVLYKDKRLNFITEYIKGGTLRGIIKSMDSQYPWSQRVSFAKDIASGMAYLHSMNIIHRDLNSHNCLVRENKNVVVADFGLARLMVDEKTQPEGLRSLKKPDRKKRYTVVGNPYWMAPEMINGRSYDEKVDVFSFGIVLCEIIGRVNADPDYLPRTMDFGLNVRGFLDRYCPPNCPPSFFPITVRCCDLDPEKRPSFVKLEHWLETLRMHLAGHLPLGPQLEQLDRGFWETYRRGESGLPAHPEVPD

[17] = target: Glycogen synthase kinase-3 beta (Homo sapiens, UniProt P49841); assay type: functional;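 also: value comes from a broad kinome profiling panel, with GSK3B as the panel member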
Sequence of Glycogen synthase kinase-3 beta (P49841 whole entry): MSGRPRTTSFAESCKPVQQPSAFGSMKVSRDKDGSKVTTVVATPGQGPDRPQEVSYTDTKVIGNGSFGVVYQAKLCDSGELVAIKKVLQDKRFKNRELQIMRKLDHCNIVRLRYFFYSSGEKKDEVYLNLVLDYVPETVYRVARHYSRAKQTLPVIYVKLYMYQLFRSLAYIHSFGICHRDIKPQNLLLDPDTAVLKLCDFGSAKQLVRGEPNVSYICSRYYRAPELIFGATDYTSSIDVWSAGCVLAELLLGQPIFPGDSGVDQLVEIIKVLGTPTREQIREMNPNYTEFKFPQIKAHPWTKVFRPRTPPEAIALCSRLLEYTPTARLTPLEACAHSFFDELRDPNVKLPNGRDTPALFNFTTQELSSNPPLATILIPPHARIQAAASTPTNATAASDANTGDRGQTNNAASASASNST

[18] = target: Dual specificity tyrosine-phosphorylation-regulated kinase 1B (Homo sapiens, UniProt Q9Y463); assay: Navigating the Kinome. Panel member name: DYRK1B; assay type: functional
Sequence of Dual specificity tyrosine-phosphorylation-regulated kinase 1B (Q9Y463 whole entry): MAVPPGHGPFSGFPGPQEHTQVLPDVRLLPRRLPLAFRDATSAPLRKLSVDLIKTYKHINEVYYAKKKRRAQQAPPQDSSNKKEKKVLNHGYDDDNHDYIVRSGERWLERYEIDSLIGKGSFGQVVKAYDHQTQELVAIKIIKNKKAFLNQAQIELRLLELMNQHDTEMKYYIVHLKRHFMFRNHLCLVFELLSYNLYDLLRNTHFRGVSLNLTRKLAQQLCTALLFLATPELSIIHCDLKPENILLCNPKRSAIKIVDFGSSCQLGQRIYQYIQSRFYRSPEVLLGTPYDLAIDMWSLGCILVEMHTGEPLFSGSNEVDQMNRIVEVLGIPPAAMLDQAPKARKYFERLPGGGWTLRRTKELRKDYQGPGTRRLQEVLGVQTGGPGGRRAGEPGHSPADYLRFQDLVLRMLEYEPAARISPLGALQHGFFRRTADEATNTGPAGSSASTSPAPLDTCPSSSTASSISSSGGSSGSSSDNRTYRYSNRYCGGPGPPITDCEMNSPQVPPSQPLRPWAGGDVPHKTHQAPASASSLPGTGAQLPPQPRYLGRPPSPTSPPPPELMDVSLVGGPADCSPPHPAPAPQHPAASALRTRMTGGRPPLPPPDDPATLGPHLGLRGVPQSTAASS

[19] = target: T5, Serine/threonine-protein kinase Chk1 (Homo sapiens, UniProt O14757); assay type: functional;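 also: measured as one member of a kinome-wide kinase profiling panel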
T5 sequence (O14757 whole entry): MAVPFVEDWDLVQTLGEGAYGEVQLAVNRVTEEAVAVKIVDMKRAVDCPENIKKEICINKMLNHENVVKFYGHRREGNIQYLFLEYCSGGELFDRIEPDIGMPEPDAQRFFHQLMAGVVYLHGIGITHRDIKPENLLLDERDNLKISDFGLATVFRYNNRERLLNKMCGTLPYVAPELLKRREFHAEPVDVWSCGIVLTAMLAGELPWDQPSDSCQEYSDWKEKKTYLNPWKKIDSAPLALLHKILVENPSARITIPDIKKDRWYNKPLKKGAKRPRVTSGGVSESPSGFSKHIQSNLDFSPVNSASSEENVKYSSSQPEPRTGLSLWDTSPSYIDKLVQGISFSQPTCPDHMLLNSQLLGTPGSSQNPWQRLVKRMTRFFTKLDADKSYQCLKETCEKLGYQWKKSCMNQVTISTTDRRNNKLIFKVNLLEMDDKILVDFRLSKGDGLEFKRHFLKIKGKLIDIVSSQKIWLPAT

COc1ccccc1NS(=O)(=O)c1cc([N+](=O)[O-])ccc1N/N=C/c1c[nH]c2ccccc12
EC50 [1]: 21.9 µM (active) | IC50 [2]: 32 µM (inactive) | EC50 [3]: 21.8 µM (active) | CC50 [4]: 41.7 µM (active) | IC50 [5]: 2.74 µM (active)

COc1ccccc1NC1=C(NC(C)=O)C(=O)c2ccccc2C1=O
IC50 [6]: > 100 µM (active) | CC50 [7]: > 40 µM (active) | IC50 [8]: 2.28 µM (active)

O=C(Nc1nc2ccc(Cl)cc2s1)c1nn(-c2ccccc2)ccc1=O
IC50 [9]: > 99 µM (inactive) | IC50 [10]: > 99 µM (inactive) | IC50 [11]: > 99 µM (inactive) | IC50 [12]: > 99 µM (inactive)

COC(=O)c1csc2ccc(=O)[nH]c12
Ki [13]: 12.6 µM (active) | Ki [14]: 25.1 µM (active) | Ki [15]: 79.4 µM (active) | Ki [16]: 15.8 µM (active) | Ki [17]: 79.4 µM (active) | Ki [18]: 63.1 µM (active) | Ki [19]: 15.8 µM (active)
